Measurements from PubChem BioAssay AID328 (DTP/NCI, 2004).
“And” between values parts separate entries of the source, which are not always exact repeats. Equal values may be shown once. Inconclusive results and toxic doses are left out.

System: BDF1 mice, P388 leukemia ip, median survival T/C
Test: NCI In Vivo Anticancer Drug Screen. Data for tumor model P388 Leukemia (intraperitoneal) in B6D2F1 (BDF1) mice
Details: endpoint: median survival time, higher = longer survival
Summary of the method: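 In tumour-bearing mice, survival after compound treatment is set against the vehicle group and given as a quotient.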

[1] = dose: 10.0 mg/kg/injection, schedule: Q01DX010 (ip), vehicle: saline
[2] = dose: 6.25 mg/kg/injection, schedule: Q01DX009 (ip), vehicle: Klucel (hydroxypropylcellulose) (HPC)
[3] = dose: 12.5 mg/kg/injection, schedule: Q01DX009 (ip), vehicle: Klucel (hydroxypropylcellulose) (HPC)
[4] = dose: 100.0 mg/kg/injection, schedule: Q01DX009 (ip), vehicle: saline with Tween-80
[5] = dose: 100.0 mg/kg/injection, schedule: Q04DX003 (ip), vehicle: saline with Tween-80
[6] = dose: 200.0 mg/kg/injection, schedule: Q01DX009 (ip), vehicle: saline with Tween-80
[7] = dose: 200.0 mg/kg/injection, schedule: Q04DX003 (ip), vehicle: saline with Tween-80
[8] = dose: 400.0 mg/kg/injection, schedule: Q01DX009 (ip), vehicle: saline with Tween-80
[9] = dose: 400.0 mg/kg/injection, schedule: Q04DX003 (ip), vehicle: saline with Tween-80
[10] = dose: 100.0 mg/kg/injection, schedule: Q01DX009 (ip), vehicle: Klucel (hydroxypropylcellulose) (HPC)
[11] = dose: 100.0 mg/kg/injection, schedule: Q04DX003 (ip), vehicle: Klucel (hydroxypropylcellulose) (HPC)
[12] = dose: 200.0 mg/kg/injection, schedule: Q01DX009 (ip), vehicle: Klucel (hydroxypropylcellulose) (HPC)
[13] = dose: 200.0 mg/kg/injection, schedule: Q04DX003 (ip), vehicle: Klucel (hydroxypropylcellulose) (HPC)
[14] = dose: 400.0 mg/kg/injection, schedule: Q04DX003 (ip), vehicle: Klucel (hydroxypropylcellulose) (HPC)
[15] = dose: 50.0 mg/kg/injection, schedule: Q01DX009 (ip), vehicle: saline with Tween-80

Q: What does the source list for NC(Cc1ccc(N(CCCl)CCCl)cc1)C(=O)O (stereo not given)?
A: T/C (dose: 0.5 mg/kg/injection, schedule: Q01DX009 (ip), vehicle: Klucel (hydroxypropylcellulose) (HPC)): 179 % of control; T/C (dose: 1.0 mg/kg/injection, schedule: Q01DX009 (ip), vehicle: Klucel (hydroxypropylcellulose) (HPC)): 222 % of control; T/C (dose: 1.25 mg/kg/injection, schedule: Q01DX010 (ip), vehicle: saline): 181 % of control and 208 % of control; T/C (dose: 2.0 mg/kg/injection, schedule: Q01DX009 (ip), vehicle: Klucel (hydroxypropylcellulose) (HPC)): 239 % of control; T/C (dose: 2.0 mg/kg/injection, schedule: Q01DX010 (ip), vehicle: other): 300 % of control; T/C (dose: 2.5 mg/kg/injection, schedule: Q01DX010 (ip), vehicle: saline): 209 % of control and 216 % of control; T/C (dose: 4.0 mg/kg/injection, schedule: Q01DX009 (ip), vehicle: Klucel (hydroxypropylcellulose) (HPC)): 256 % of control; T/C (dose: 4.0 mg/kg/injection, schedule: Q01DX010 (ip), vehicle: other): 250 % of control; T/C (dose: 5.0 mg/kg/injection, schedule: Q01DX010 (ip), vehicle: saline): 233 % of control and 286 % of control; T/C (dose: 8.0 mg/kg/injection, schedule: Q01DX010 (ip), vehicle: other): 113 % of control; T/C [1]: 100 % of control; T/C (dose: 16.0 mg/kg/injection, schedule: Q01DX010 (ip), vehicle: other): 90 % of control

Q: Which T/C (dose: 25.0 mg/kg/injection, schedule: Q01DX009 (ip), vehicle: saline) does the source give for CN=C1N[N+]2=C(C)CCCC2(C)S1 (stereo not given) here?
A: The T/C was 100 % of control.

Q: And the T/C (dose: 50.0 mg/kg/injection, schedule: Q01DX009 (ip), vehicle: saline)?
A: Its T/C is 103 % of control.

Q: What about the T/C (dose: 100.0 mg/kg/injection, schedule: Q01DX009 (ip), vehicle: saline) of the same compound?
A: Its T/C is 99 % of control.

Q: For CCCCSC1=CC(=O)c2ccccc2C1=O, which T/C (dose: 3.12 mg/kg/injection, schedule: Q01DX009 (ip), vehicle: Klucel (hydroxypropylcellulose) (HPC)) is on record?
A: The T/C was 92 % of control and 104 % of control.

Q: And the T/C [2]?
A: Its T/C is 100 % of control and 116 % of control.

Q: And the T/C [3]?
A: Its T/C is 100 % of control and 107 % of control and 108 % of control.

Q: Which results are given for COc1ccc(C(C#N)Nc2ccccc2)cc1 (stereo not given)?
A: T/C [4]: 105 % of control; T/C [5]: 109 % of control; T/C [6]: 110 % of control; T/C [7]: 100 % of control; T/C [8]: 95 % of control; T/C [9]: 109 % of control

Q: Which results are given for Cc1noc(N)c1N?
A: T/C (dose: 100.0 mg/kg/injection, schedule: Q01DX009 (ip), vehicle: water): 110 % of control; T/C (dose: 100.0 mg/kg/injection, schedule: Q04DX003 (ip), vehicle: water): 109 % of control; T/C (dose: 200.0 mg/kg/injection, schedule: Q01DX009 (ip), vehicle: water): 110 % of control and 117 % of control; T/C (dose: 200.0 mg/kg/injection, schedule: Q04DX003 (ip), vehicle: water): 100 % of control; T/C (dose: 400.0 mg/kg/injection, schedule: Q01DX009 (ip), vehicle: water): 106 % of control; T/C (dose: 400.0 mg/kg/injection, schedule: Q04DX003 (ip), vehicle: water): 100 % of control; T/C (dose: 600.0 mg/kg/injection, schedule: Q01DX009 (ip), vehicle: water): 122 % of control

Q: How did the T/C (dose: 25.0 mg/kg/injection, schedule: Q01DX009 (ip), vehicle: other) turn out when CCOC(=O)CC(COC)C(C(=O)OCC)C(=O)OCC (stereo not given) was run?
A: Its T/C is 95 % of control.

Q: And the T/C (dose: 50.0 mg/kg/injection, schedule: Q01DX009 (ip), vehicle: other)?
A: Its T/C is 121 % of control.

Q: What about the T/C (dose: 50.0 mg/kg/injection, schedule: Q04DX003 (ip), vehicle: other) of the same compound?
A: The T/C was 122 % of control.

Q: What about the T/C (dose: 100.0 mg/kg/injection, schedule: Q01DX009 (ip), vehicle: other) of the same compound?
A: The T/C was 92 % of control.

Q: What about the T/C (dose: 100.0 mg/kg/injection, schedule: Q04DX003 (ip), vehicle: other) of the same compound?
A: Its T/C is 122 % of control.

Q: What about the T/C (dose: 200.0 mg/kg/injection, schedule: Q01DX009 (ip), vehicle: other) of the same compound?
A: The T/C was 100 % of control.

Q: What about the T/C (dose: 200.0 mg/kg/injection, schedule: Q04DX003 (ip), vehicle: other) of the same compound?
A: The T/C was 122 % of control.

Q: What about the T/C (dose: 400.0 mg/kg/injection, schedule: Q04DX003 (ip), vehicle: other) of the same compound?
A: The T/C was 100 % of control.

Q: What does the source list for Cc1ccccc1C(Br)C1=CC(C)(C)c2ccccc2C1=O (stereo not given)?
A: T/C [10]: 95 % of control; T/C [11]: 100 % of control; T/C [12]: 100 % of control; T/C [13]: 104 % of control; T/C (dose: 400.0 mg/kg/injection, schedule: Q01DX009 (ip), vehicle: Klucel (hydroxypropylcellulose) (HPC)): 95 % of control; T/C [14]: 100 % of control

Q: CC(=O)c1cc(C)ccc1Sc1ccc(C)cc1 was tested. Which T/C [15] did it give?
A: The T/C was 104 % of control.

Q: And the T/C [4]?
A: Its T/C is 101 % of control.

Q: And the T/C [6]?
A: The T/C was 95 % of control.

Q: For CC[C@@H]1C[C@@H]2CN3CCc4c([nH]c5ccc(OC)cc45)C(C(=O)OC)(C2)C13, which T/C (dose: 50.0 mg/kg/injection, schedule: Q01DX009 (ip), vehicle: Klucel (hydroxypropylcellulose) (HPC)) is on record?
A: The T/C was 108 % of control.

Q: And the T/C [10]?
A: The T/C was 113 % of control.

Q: What about the T/C [12] of the same compound?
A: The T/C was 113 % of control.

Q: For Cc1ncc([N+](=O)[O-])n1CCN/C=C/C#N, which T/C [5] is on record?
A: Its T/C is 111 % of control.

Q: What about the T/C [7] of the same compound?
A: The T/C was 123 % of control.

Q: And the T/C [9]?
A: The T/C was 120 % of control.

Q: How did the T/C [15] turn out when O=C1CCCCCC1Cc1cc(O)c(CC2CCCCCC2=O)cc1O (stereo not given) was run?
A: Its T/C is 96 % of control.

Q: What about the T/C [6] of the same compound?
A: The T/C was 97 % of control.

Q: With O=C(CC(=O)Oc1ccc(Cl)cc1Cl)Oc1ccc(Cl)cc1Cl as the compound, how does the T/C [4] read?
A: The T/C was 100 % of control.

Q: And the T/C [6]?
A: The T/C was 100 % of control.

Q: And the T/C [8]?
A: Its T/C is 100 % of control.

Q: For Cc1ccccc1NC(=O)C1CCC(C)(C(=O)O)C1(C)C (stereo not given), which T/C [5] is on record?
A: The T/C was 90 % of control.

Q: What about the T/C [7] of the same compound?
A: The T/C was 100 % of control.

Q: And the T/C [9]?
A: Its T/C is 90 % of control.

Q: O=C(CC(c1ccccc1)N1CCN(c2ccccc2)CC1)c1ccccc1 (stereo not given) was tested. Which T/C [11] did it give?
A: Its T/C is 100 % of control.

Q: And the T/C [13]?
A: Its T/C is 100 % of control.

Q: And the T/C [14]?
A: The T/C was 100 % of control.

Q: For O=C(CCBr)N1CCN(C(=O)CCBr)CC1, which T/C [1] is on record?
A: The T/C was 109 % of control.

Q: And the T/C (dose: 20.0 mg/kg/injection, schedule: Q01DX010 (ip), vehicle: saline)?
A: The T/C was 122 % of control.

Q: What about the T/C (dose: 40.0 mg/kg/injection, schedule: Q01DX010 (ip), vehicle: saline) of the same compound?
A: The T/C was 181 % of control.

Q: For O=[N+]([O-])c1ccc(Cl)c2nonc12, which T/C (dose: 15.0 mg/kg/injection, schedule: Q01DX009 (ip), vehicle: saline with Tween-80) is on record?
A: Its T/C is 103 % of control.

Q: Which T/C [15] does the source give for CCOC(=O)/C(C#N)=C/C=C1\C=CC=CN1C here?
A: Its T/C is 90 % of control.

Q: With Clc1ccc2c(c1)N(CCCN1CCCC13CCCCC3)c1ccccc1S2 as the compound, how does the T/C (dose: 1.56 mg/kg/injection, schedule: Q01DX009 (ip), vehicle: saline) read?
A: The T/C was 87 % of control.

Q: And the T/C (dose: 1.56 mg/kg/injection, schedule: Q04DX003 (ip), vehicle: saline with Tween-80)?
A: Its T/C is 91 % of control.

Q: And the T/C (dose: 3.12 mg/kg/injection, schedule: Q01DX009 (ip), vehicle: saline)?
A: The T/C was 104 % of control.

Q: What about the T/C (dose: 3.12 mg/kg/injection, schedule: Q04DX003 (ip), vehicle: saline with Tween-80) of the same compound?
A: The T/C was 91 % of control.

Q: And the T/C (dose: 6.25 mg/kg/injection, schedule: Q01DX009 (ip), vehicle: saline)?
A: The T/C was 95 % of control.

Q: And the T/C (dose: 6.25 mg/kg/injection, schedule: Q04DX003 (ip), vehicle: saline with Tween-80)?
A: The T/C was 91 % of control.

Q: What about the T/C (dose: 12.5 mg/kg/injection, schedule: Q01DX009 (ip), vehicle: saline) of the same compound?
A: The T/C was 95 % of control.

Q: And the T/C (dose: 12.5 mg/kg/injection, schedule: Q04DX003 (ip), vehicle: saline with Tween-80)?
A: The T/C was 95 % of control.

Q: How did the T/C [2] turn out when CC12CCC(C1)C(C)(C)C2NCCCN1C(=O)c2ccc3c4c(ccc(c24)C1=O)C(=O)N(CCCNC1C2(C)CCC(C2)C1(C)C)C3=O (stereo not given) was run?
A: Its T/C is 105 % of control.

Q: And the T/C [3]?
A: Its T/C is 100 % of control.

Q: What about the T/C (dose: 25.0 mg/kg/injection, schedule: Q01DX009 (ip), vehicle: Klucel (hydroxypropylcellulose) (HPC)) of the same compound?
A: The T/C was 115 % of control and 116 % of control.

Q: For O=C(Nc1cc(C(F)(F)F)ccc1Cl)c1ccccc1Cl, which T/C [5] is on record?
A: The T/C was 100 % of control.

Q: What about the T/C [7] of the same compound?
A: The T/C was 104 % of control.

Q: What about the T/C [9] of the same compound?
A: Its T/C is 113 % of control.

Q: For Clc1ccc(-n2nnc3cc(Cl)ccc32)c(Cl)c1, which T/C [4] is on record?
A: The T/C was 99 % of control.
